Laboratory results from ChEMBL document CHEMBL1201862, “PubChem BioAssay data set” (2004).
Activity calls are given as the source filed them.

Tests used:
Type in all cases: functional
[1] = molecular target: T1, High affinity choline transporter 1 (Homo sapiens, UniProt Q9GZV3); test: human choline transporter blockers, potency – cell-based, 10-point CRC, membrane potential dye, dose response (AID 588401);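 note: membrane potential dye fluorescence of choline-evoked depolarization via CHT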
T1 sequence (Q9GZV3 whole entry): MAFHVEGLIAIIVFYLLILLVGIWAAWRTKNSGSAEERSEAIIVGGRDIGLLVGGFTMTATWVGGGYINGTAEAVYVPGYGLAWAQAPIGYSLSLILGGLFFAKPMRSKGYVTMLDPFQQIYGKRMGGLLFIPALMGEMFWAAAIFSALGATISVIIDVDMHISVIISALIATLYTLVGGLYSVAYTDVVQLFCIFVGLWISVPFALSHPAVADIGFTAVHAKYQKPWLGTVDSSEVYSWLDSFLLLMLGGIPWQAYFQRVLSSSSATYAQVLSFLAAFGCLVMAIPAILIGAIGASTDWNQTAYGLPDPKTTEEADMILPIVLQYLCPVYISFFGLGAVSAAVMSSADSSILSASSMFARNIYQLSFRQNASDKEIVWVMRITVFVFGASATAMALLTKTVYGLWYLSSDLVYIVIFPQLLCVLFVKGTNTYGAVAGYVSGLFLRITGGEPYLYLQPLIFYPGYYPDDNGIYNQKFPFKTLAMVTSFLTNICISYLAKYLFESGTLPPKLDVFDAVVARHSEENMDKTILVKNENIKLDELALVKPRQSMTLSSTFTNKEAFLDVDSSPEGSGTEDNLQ

[2] = molecular target: T1, High affinity choline transporter 1; test: human choline transporter blockers, potency – cell-based, 5-point CRC, membrane potential dye, dose response (AID 504840)
[3] = molecular target: Leukocyte tyrosine kinase receptor (Homo sapiens, UniProt P29376); test: Navigating the Kinome. Panel member name: LTK
Chain of Leukocyte tyrosine kinase receptor (P29376 whole entry): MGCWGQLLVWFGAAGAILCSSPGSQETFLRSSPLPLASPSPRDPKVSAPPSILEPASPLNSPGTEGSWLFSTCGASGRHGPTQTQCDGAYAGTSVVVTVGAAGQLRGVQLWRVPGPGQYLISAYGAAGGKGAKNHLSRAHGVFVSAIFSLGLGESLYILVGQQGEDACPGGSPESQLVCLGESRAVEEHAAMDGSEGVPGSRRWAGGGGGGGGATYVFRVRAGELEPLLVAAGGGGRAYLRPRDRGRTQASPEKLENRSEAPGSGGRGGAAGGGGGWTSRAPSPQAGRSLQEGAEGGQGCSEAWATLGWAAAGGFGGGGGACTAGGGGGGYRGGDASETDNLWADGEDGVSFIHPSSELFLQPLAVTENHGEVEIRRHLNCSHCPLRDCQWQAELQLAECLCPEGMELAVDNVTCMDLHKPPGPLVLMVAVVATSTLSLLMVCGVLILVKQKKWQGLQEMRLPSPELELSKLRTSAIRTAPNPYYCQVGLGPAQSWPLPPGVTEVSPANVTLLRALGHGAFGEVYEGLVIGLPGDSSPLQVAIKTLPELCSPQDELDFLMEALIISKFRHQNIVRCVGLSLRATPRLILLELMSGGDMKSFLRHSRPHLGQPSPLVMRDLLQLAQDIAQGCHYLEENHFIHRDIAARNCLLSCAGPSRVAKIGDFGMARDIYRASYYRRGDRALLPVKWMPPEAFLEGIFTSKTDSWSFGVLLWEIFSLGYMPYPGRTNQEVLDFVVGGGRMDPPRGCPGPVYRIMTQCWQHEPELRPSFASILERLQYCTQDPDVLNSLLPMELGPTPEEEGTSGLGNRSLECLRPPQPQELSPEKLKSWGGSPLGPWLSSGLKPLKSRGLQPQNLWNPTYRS

[4] = molecular target: Rho-associated protein kinase 1 (Homo sapiens, UniProt Q13464);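 note: measured within a broad kinome-wide panel profiling many kinases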
[5] = molecular target: Activated CDC42 kinase 1 (Homo sapiens, UniProt Q07912); test: Navigating the Kinome. Panel member name: ACK1
[6] = molecular target: Insulin-like growth factor 1 receptor (Homo sapiens, UniProt P08069); test: Navigating the Kinome. Panel member name: IGF1R
[7] = molecular target: Glycogen synthase kinase-3 beta (Homo sapiens, UniProt P49841);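 note: value comes from a broad kinome profiling panel, with GSK3B as the panel member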
[8] = molecular target: Aurora kinase B (Homo sapiens, UniProt Q96GD4)
[9] = molecular target: Leucine-rich repeat serine/threonine-protein kinase 2 (Homo sapiens, UniProt Q5S007);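 note: value from a broad kinome-wide panel profiling study in which LRRK2 was one of the kinases tested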
Chain of Leucine-rich repeat serine/threonine-protein kinase 2 (Q5S007 whole entry): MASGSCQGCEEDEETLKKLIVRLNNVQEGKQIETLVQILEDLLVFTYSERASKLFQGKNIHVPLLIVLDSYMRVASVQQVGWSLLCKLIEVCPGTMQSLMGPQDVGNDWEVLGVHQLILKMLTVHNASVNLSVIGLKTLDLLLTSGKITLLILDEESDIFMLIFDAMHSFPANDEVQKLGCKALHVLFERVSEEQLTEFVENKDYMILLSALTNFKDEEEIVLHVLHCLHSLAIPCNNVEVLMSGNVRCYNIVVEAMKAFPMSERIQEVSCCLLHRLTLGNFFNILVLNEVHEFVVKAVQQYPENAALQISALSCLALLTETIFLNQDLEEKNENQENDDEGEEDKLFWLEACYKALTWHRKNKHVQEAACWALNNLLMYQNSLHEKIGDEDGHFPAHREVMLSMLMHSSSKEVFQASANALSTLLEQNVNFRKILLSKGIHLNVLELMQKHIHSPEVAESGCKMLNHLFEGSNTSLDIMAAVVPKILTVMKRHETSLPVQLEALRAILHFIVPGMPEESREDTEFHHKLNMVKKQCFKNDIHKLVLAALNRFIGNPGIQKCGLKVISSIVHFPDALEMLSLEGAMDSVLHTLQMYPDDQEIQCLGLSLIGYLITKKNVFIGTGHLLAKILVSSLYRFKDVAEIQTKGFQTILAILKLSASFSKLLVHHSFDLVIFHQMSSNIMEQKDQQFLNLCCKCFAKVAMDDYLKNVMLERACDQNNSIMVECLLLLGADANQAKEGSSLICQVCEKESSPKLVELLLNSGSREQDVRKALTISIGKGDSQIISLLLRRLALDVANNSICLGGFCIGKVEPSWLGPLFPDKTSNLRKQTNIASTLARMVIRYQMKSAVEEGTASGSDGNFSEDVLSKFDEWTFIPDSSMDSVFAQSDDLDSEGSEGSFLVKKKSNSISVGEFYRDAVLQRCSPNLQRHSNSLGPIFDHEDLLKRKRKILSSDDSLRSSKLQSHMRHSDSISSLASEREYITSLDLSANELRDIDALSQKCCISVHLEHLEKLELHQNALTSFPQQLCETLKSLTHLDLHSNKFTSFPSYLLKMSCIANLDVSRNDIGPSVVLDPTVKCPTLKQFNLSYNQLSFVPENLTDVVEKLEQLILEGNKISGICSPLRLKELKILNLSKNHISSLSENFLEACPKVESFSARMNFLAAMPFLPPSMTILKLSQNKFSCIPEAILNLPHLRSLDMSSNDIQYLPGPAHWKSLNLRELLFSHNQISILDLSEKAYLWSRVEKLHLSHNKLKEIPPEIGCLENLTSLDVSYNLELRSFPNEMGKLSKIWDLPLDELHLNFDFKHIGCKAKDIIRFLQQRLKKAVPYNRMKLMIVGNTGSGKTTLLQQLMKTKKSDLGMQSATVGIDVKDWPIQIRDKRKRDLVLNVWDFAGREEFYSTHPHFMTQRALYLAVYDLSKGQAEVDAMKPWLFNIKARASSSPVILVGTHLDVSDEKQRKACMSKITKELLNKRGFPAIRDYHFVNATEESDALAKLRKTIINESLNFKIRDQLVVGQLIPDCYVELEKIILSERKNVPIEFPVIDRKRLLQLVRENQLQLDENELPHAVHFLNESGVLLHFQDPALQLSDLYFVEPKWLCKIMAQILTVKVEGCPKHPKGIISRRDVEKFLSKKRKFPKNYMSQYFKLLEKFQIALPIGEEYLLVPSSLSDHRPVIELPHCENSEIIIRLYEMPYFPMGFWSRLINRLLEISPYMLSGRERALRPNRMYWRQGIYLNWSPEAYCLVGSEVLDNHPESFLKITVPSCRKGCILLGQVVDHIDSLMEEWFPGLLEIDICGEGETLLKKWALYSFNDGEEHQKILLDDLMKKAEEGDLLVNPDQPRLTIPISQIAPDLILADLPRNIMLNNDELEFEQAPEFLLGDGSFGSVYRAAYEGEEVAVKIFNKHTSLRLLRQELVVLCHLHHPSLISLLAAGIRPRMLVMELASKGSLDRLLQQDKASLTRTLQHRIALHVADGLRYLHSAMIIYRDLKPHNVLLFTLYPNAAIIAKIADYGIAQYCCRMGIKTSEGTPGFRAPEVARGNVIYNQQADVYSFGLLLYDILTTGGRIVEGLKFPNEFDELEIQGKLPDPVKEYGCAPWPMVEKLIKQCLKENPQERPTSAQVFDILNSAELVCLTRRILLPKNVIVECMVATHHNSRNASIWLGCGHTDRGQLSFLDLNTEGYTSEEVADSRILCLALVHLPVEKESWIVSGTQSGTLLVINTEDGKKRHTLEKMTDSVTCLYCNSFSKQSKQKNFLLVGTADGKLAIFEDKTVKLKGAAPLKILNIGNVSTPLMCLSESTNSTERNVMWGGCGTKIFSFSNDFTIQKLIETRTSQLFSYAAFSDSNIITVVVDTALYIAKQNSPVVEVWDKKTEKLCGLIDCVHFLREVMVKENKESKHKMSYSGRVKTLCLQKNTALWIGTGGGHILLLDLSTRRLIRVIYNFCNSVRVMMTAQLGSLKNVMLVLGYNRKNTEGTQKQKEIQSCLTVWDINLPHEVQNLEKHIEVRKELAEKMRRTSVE

[10] = molecular target: Receptor-type tyrosine-protein kinase FLT3 (Homo sapiens, UniProt P36888);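 note: FLT3 was tested as one member of a kinome-wide kinase panel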
[11] = molecular target: ALK tyrosine kinase receptor (Homo sapiens, UniProt Q9UM73);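 note: ALK tested as one member of a kinase panel screen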
[12] = molecular target: Protein kinase C theta type (Homo sapiens, UniProt Q04759); test: Navigating the Kinome. Panel member name: PRKCQ
[13] = molecular target: Mitogen-activated protein kinase 9 (Homo sapiens, UniProt P45984);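 note: value from a kinome panel profiling assay, MAPK9 panel entry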
[14] = molecular target: Macrophage colony-stimulating factor 1 receptor (Homo sapiens, UniProt P07333);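 note: value comes from the Navigating the Kinome screening panel, CSF1R member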
[15] = molecular target: Platelet-derived growth factor receptor alpha (Homo sapiens, UniProt P16234); test: Navigating the Kinome. Panel member name: PDGFRA
[16] = molecular target: Dual specificity protein kinase CLK2 (Homo sapiens, UniProt P49760)
[17] = molecular target: 5'-AMP-activated protein kinase catalytic subunit alpha-1 (Homo sapiens, UniProt Q13131)
[18] = molecular target: cAMP-dependent protein kinase catalytic subunit alpha (Homo sapiens, UniProt P17612)
[19] = molecular target: Cyclin-dependent kinase 8 (Homo sapiens, UniProt P49336); test: Navigating the Kinome. Panel member name: CDK8
[20] = molecular target: Inhibitor of nuclear factor kappa-B kinase subunit epsilon (Homo sapiens, UniProt Q14164); test: Navigating the Kinome. Panel member name: IKBKE
[21] = molecular target: Tyrosine-protein kinase ABL1 (Homo sapiens, UniProt P00519)
[22] = molecular target: Tyrosine-protein kinase JAK2 (Homo sapiens, UniProt O60674);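 note: JAK2 tested as one member of a kinase panel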
[23] = molecular target: Mitogen-activated protein kinase 8 (Homo sapiens, UniProt P45983);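 note: value comes from one member of a kinome-wide kinase profiling panel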
[24] = molecular target: Dual specificity protein kinase CLK4 (Homo sapiens, UniProt Q9HAZ1)
[25] = molecular target: Serine/threonine-protein kinase Chk1 (Homo sapiens, UniProt O14757);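 note: measured as one member of a kinome-wide kinase profiling panel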
[26] = molecular target: Mitogen-activated protein kinase kinase kinase kinase 4 (Homo sapiens, UniProt O95819)
[27] = molecular target: Serine/threonine-protein kinase PAK 4 (Homo sapiens, UniProt O96013);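 note: value obtained within a kinome profiling panel in which PAK4 was one of the panel members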
[28] = molecular target: Calcium/calmodulin-dependent protein kinase type II subunit alpha (Homo sapiens, UniProt Q9UQM7); test: Navigating the Kinome. Panel member name: CAMK2A
[29] = molecular target: Mitogen-activated protein kinase 14 (Homo sapiens, UniProt Q16539);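 note: part of a kinome-wide panel, MAPK14 entry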
[30] = molecular target: Dual specificity mitogen-activated protein kinase kinase 2 (Homo sapiens, UniProt P36507); test: Navigating the Kinome. Panel member name: MAP2K2
[31] = molecular target: Dual specificity mitogen-activated protein kinase kinase 1 (Homo sapiens, UniProt Q02750); test: Navigating the Kinome. Panel member name: MAP2K1
[32] = molecular target: Serine/threonine-protein kinase Nek2 (Homo sapiens, UniProt P51955)
[33] = molecular target: BDNF/NT-3 growth factors receptor (Homo sapiens, UniProt Q16620);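 note: NTRK2 measured as one member of a broad kinome-wide kinase profiling panel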
Chain of BDNF/NT-3 growth factors receptor (Q16620 whole entry): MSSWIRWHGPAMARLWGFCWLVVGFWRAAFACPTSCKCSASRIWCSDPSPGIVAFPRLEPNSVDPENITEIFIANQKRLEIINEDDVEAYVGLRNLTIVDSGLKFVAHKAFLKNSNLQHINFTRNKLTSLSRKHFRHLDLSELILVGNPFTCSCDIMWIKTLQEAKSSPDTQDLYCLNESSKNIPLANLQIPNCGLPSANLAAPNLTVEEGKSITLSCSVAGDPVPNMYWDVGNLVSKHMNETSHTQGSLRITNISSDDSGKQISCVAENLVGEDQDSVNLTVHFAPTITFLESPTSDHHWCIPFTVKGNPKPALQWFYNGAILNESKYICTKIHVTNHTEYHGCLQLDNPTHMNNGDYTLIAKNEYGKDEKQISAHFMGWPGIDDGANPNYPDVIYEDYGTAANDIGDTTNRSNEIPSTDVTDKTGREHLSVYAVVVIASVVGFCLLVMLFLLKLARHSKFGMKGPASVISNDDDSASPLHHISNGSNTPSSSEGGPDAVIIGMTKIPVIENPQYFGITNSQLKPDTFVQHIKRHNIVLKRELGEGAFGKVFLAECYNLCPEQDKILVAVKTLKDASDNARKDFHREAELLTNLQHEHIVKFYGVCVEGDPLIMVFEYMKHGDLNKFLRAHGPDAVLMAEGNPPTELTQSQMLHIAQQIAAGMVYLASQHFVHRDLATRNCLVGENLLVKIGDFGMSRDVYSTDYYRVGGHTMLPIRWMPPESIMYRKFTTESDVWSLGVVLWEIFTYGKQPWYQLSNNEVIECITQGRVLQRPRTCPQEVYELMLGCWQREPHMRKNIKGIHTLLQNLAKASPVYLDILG

[34] = molecular target: Death-associated protein kinase 3 (Homo sapiens, UniProt O43293);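 note: measured as one member of a kinome-wide profiling panel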
Chain of Death-associated protein kinase 3 (O43293 whole entry, the tested form may be a part): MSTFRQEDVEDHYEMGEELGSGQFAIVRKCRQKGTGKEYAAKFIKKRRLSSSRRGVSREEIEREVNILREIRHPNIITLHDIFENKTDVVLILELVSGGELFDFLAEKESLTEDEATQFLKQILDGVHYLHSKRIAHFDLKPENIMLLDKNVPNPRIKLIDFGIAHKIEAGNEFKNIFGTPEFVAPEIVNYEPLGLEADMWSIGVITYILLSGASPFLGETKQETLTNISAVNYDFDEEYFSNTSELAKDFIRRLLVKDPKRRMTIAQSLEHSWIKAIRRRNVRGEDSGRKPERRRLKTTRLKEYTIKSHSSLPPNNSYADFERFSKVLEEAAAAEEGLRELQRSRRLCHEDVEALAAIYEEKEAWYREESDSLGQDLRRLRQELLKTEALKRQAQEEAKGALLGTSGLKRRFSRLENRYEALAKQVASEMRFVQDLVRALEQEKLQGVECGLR

[35] = molecular target: LIM domain kinase 1 (Homo sapiens, UniProt P53667); test: Navigating the Kinome. Panel member name: LIMK1
[36] = molecular target: Tyrosine-protein kinase Lck (Homo sapiens, UniProt P06239);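 note: lck was assayed as one member of a kinase panel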
[37] = molecular target: Cyclin-dependent kinase 9 (Homo sapiens, UniProt P50750);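 note: value from the CDK9 entry of a kinome-spanning kinase panel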
[38] = molecular target: Dual specificity tyrosine-phosphorylation-regulated kinase 1A (Homo sapiens, UniProt Q13627);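 note: measured against DYRK1A as one member of a broad kinome profiling panel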
[39] = molecular target: Glycogen synthase kinase-3 alpha (Homo sapiens, UniProt P49840);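 note: GSK3A result taken from a broad kinome-wide kinase panel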
[40] = molecular target: Aurora kinase A (Homo sapiens, UniProt O14965);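 note: value from the Navigating the Kinome kinase panel profiling, panel entry STK6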
[41] = molecular target: Serine/threonine-protein kinase TBK1 (Homo sapiens, UniProt Q9UHD2); test: Navigating the Kinome. Panel member name: TBK1
[42] = molecular target: Vascular endothelial growth factor receptor 2 (Homo sapiens, UniProt P35968)
[43] = molecular target: Casein kinase I isoform alpha (Homo sapiens, UniProt P48729)
[44] = molecular target: Serine/threonine-protein kinase TAO1 (Homo sapiens, UniProt Q7L7X3)
[45] = molecular target: Cyclin-dependent kinase 5 (Homo sapiens, UniProt Q00535);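 note: CDK5 measured as one member of a kinase profiling panel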
Chain of Cyclin-dependent kinase 5 (Q00535 whole entry): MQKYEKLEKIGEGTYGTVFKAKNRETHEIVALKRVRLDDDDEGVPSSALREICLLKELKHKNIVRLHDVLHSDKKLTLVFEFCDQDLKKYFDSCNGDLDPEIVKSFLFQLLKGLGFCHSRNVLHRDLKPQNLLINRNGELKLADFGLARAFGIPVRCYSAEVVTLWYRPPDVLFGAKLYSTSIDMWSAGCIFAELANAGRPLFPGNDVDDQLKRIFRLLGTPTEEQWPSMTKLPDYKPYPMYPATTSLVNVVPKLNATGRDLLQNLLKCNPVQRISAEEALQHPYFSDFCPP

[46] = molecular target: Activin receptor type-1 (Homo sapiens, UniProt Q04771); test: Navigating the Kinome. Panel member name: ACVR1
[47] = molecular target: Tyrosine-protein kinase Fyn (Homo sapiens, UniProt P06241)
[48] = molecular target: Fibroblast growth factor receptor 1 (Homo sapiens, UniProt P11362)
[49] = molecular target: Platelet-derived growth factor receptor beta (Homo sapiens, UniProt P09619);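 note: value comes from a kinome panel, with PDGFRB tested as one panel member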
[50] = molecular target: Dual specificity tyrosine-phosphorylation-regulated kinase 1B (Homo sapiens, UniProt Q9Y463); test: Navigating the Kinome. Panel member name: DYRK1B
[51] = molecular target: Vascular endothelial growth factor receptor 1 (Homo sapiens, UniProt P17948);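 note: measured within a kinome-wide profiling panel, FLT1 as the panel member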
[52] = molecular target: Cyclin-dependent kinase 7 (Homo sapiens, UniProt P50613);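 note: value comes from a kinome-wide kinase profiling panel in which CDK7 is one member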
[53] = molecular target: High affinity nerve growth factor receptor (Homo sapiens, UniProt P04629);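 note: NTRK1 tested as one member of a kinome-wide profiling panel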
[54] = molecular target: Tyrosine-protein kinase JAK3 (Homo sapiens, UniProt P52333)
[55] = molecular target: Mitogen-activated protein kinase kinase kinase kinase 2 (Homo sapiens, UniProt Q12851);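 note: measured as one member of a kinome-wide kinase panel, with MAP4K2 as the panel entry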
[56] = molecular target: Macrophage-stimulating protein receptor (Homo sapiens, UniProt Q04912); test: Navigating the Kinome. Panel member name: MST1R
[57] = molecular target: Serine/threonine-protein kinase pim-1 (Homo sapiens, UniProt P11309)
[58] = molecular target: cAMP-dependent protein kinase catalytic subunit PRKX (Homo sapiens, UniProt P51817)
[59] = molecular target: Tyrosine-protein kinase receptor TYRO3 (Homo sapiens, UniProt Q06418);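 note: TYRO3 value obtained as one member of a kinome-wide profiling panel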
[60] = molecular target: Serine/threonine-protein kinase D3 (Homo sapiens, UniProt O94806);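 note: determined within a kinase panel screen, with PRKCN as the panel member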

With `COc1ccc(C(CNC(=O)c2cccc(S(=O)(=O)Nc3ccc(C)cc3)c2)N2CCCCC2)cc1` (stereo not given) the IC50 [1] was 5.77 µM (active) and the IC50 [2] was 8.72 µM (active).
`N#Cc1ccc2c(c1)C(c1ccc3c(n1)CCCC3O)C(=O)N2` (stereo not given) was tested, and the Ki [3] was 0.501 µM (active), the Ki [4] was 2 µM (active) and the Ki [5] was > 3.98 µM (inactive). For the same molecule, the Ki [6] was > 2.51 µM (inactive), the Ki [7] was 0.0316 µM (active) and the Ki [8] was 0.501 µM (active). For the same molecule, the Ki [9] was 1.26 µM (active), the Ki [10] was 0.1 µM (active) and the Ki [11] was 2.51 µM (active). The Ki [12] was > 2.51 µM (inactive), the Ki [13] was > 3.98 µM (inactive) and the Ki [14] was 0.126 µM (active). The Ki [15] was > 2.51 µM (inactive), the Ki [16] was 0.398 µM (active) and the Ki [17] was 1.26 µM (active). For the same molecule, the Ki [18] was > 1.26 µM (inactive), the Ki [19] was > 3.98 µM (inactive) and the Ki [20] was 2 µM (active). The Ki [21] was > 2.51 µM (inactive), the Ki [22] was > 2.51 µM (inactive) and the Ki [23] was 1.26 µM (active). For the same molecule, the Ki [24] was 0.0316 µM (active), the Ki [25] was > 3.16 µM (inactive) and the Ki [26] was 0.316 µM (active). The Ki [27] was > 5.01 µM (inactive), the Ki [28] was > 3.98 µM (inactive) and the Ki [29] was > 3.98 µM (inactive). The Ki [30] was 0.794 µM (active), the Ki [31] was 1 µM (active) and the Ki [32] was > 3.16 µM (inactive). For the same molecule, the Ki [33] was 2 µM (active), the Ki [34] was 1.26 µM (active) and the Ki [35] was > 3.16 µM (inactive). For the same molecule, the Ki [36] was > 6.31 µM (inactive), the Ki [37] was 0.631 µM (active) and the Ki [38] was 0.1 µM (active). For the same molecule, the Ki [39] was 0.0794 µM (active), the Ki [40] was 1.58 µM (active) and the Ki [41] was 0.794 µM (active). For the same molecule, the Ki [42] was 0.158 µM (active), the Ki [43] was 0.0398 µM (active) and the Ki [44] was > 6.31 µM (inactive). The Ki [45] was > 3.16 µM (inactive), the Ki [46] was 2 µM (active) and the Ki [47] was > 6.31 µM (inactive). The Ki [48] was 3.16 µM (active), the Ki [49] was 0.316 µM (active) and the Ki [50] was 0.126 µM (active). The Ki [51] was 1.58 µM (active), the Ki [52] was 0.0398 µM (active) and the Ki [53] was > 3.16 µM (inactive). The Ki [54] was > 5.01 µM (inactive), the Ki [55] was 1.58 µM (active) and the Ki [56] was 0.316 µM (active). For the same molecule, the Ki [57] was > 6.31 µM (inactive), the Ki [58] was > 3.16 µM (inactive) and the Ki [59] was 2.51 µM (active). The Ki [60] was 3.16 µM (active).
